Results: PubChem BioAssay (NCI)
Several values for one entry are separate records, joined by “and”; a condition that tells them apart may be missing. Identical values can stand only once.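 GI50 marks 50% less growth. TGI: concentration producing complete growth inhibition.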

What was measured:
Test in all cases: growth of human tumour cells (NCI), 384-well format
[1] = test system: COLO 205 colon
[2] = test system: HOP-92 NSCLC
[3] = test system: KM12 colon
[4] = test system: MCF7 breast
[5] = test system: TK-10 renal
[6] = test system: SK-OV-3 ovarian
[7] = test system: K-562 leukemia
[8] = test system: OVCAR-5 ovarian
[9] = test system: MDA-MB-231 breast
[10] = test system: MALME-3M melanoma
[11] = test system: CAKI-1 renal
[12] = test system: RXF 393 renal
[13] = test system: EKVX NSCLC
[14] = test system: OVCAR-4 ovarian
[15] = test system: SF-295 CNS
[16] = test system: SR leukemia
[17] = test system: SK-MEL-5 melanoma
[18] = test system: NCI-H23 lung
[19] = test system: SK-MEL-28 melanoma
[20] = test system: HL-60(TB) leukemia
[21] = test system: ACHN renal
[22] = test system: NCI-H226 lung
[23] = test system: OVCAR-8 ovarian
[24] = test system: NCI/ADR-RES ovarian
[25] = test system: NCI-H322M lung
[26] = test system: SNB-75 CNS
[27] = test system: RPMI-8226 leukemia
[28] = test system: DU-145 prostate
[29] = test system: M14 melanoma
[30] = test system: MDA-MB-468 breast
[31] = test system: BT-549 breast
[32] = test system: HCT-15 colon
[33] = test system: LOX IMVI melanoma
[34] = test system: NCI-H522 lung
[35] = test system: HCT-116 colon
[36] = test system: HS 578T breast
[37] = test system: MOLT-4 leukemia
[38] = test system: SW-620 colon

CCc1cc2c(cc1N1CCC(N3CCOCC3)CC1)C(C)(C)c1[nH]c3cc(C#N)ccc3c1C2=O
GI50 [1]: 7030 nM and 1160 nM
GI50 [2]: 5130 nM and 841 nM
TGI [2]: 11300 nM and 2620 nM
TGI [3]: 6700 nM and 1470 nM
TGI [4]: 8580 nM and 2050 nM
GI50 [5]: 11400 nM and 1450 nM
TGI [5]: 26600 nM and 3090 nM
GI50 [6]: 11000 nM and 1150 nM
GI50 [7]: 633 nM
TGI [7]: 5170 nM
GI50 [8]: 5330 nM and 1210 nM
GI50 [9]: 1110 nM and 1260 nM
TGI [9]: 2730 nM and 3320 nM
GI50 [10]: 2110 nM and 839 nM
TGI [10]: 5690 nM and 2240 nM
GI50 [11]: 5870 nM and 2170 nM
TGI [11]: 14200 nM and 5760 nM
GI50 [12]: 2450 nM and 547 nM
TGI [12]: 7130 nM and 1880 nM
GI50 [13]: 4670 nM and 1370 nM
TGI [13]: 11400 nM and 2980 nM
GI50 [14]: 1190 nM and 437 nM
TGI [14]: 2460 nM and 1500 nM
TGI [15]: 11300 nM and 2170 nM
TGI [16]: 686 nM
TGI [17]: 8310 nM and 1600 nM
GI50 [18]: 4880 nM and 1470 nM
TGI [18]: 13100 nM and 10900 nM
GI50 [19]: 17500 nM and 1800 nM
TGI [19]: 31300 nM and 3560 nM
GI50 [20]: 6140 nM and 686 nM
TGI [20]: 10900 nM and 1900 nM
GI50 [21]: 5040 nM and 1420 nM
TGI [21]: 12300 nM and 3120 nM
GI50 [22]: 3100 nM
TGI [22]: 8340 nM and 2640 nM
GI50 [23]: 4120 nM and 1110 nM
TGI [23]: 8680 nM and 2360 nM
GI50 [24]: 666 nM and 1540 nM
TGI [24]: 2960 nM and 4510 nM
TGI [25]: 29400 nM and 3810 nM
TGI [26]: 10600 nM and 1070 nM
GI50 [27]: 1740 nM and 399 nM
TGI [27]: 4440 nM and 1850 nM
GI50 [28]: 1630 nM and 992 nM
TGI [28]: 6570 nM and 2370 nM
GI50 [29]: 5430 nM and 726 nM
TGI [29]: 13300 nM and 4300 nM
GI50 [30]: 2560 nM and 567 nM
TGI [30]: 6540 nM and 1710 nM
GI50 [31]: 4750 nM and 496 nM
TGI [31]: 9000 nM and 1620 nM
TGI [32]: 8230 nM and 1450 nM
GI50 [33]: 4670 nM and 1170 nM
TGI [33]: 9040 nM and 2670 nM
GI50 [34]: 2920 nM and 1150 nM
TGI [34]: 8640 nM and 2580 nM
GI50 [35]: 5790 nM and 1470 nM
TGI [35]: 11500 nM and 3080 nM
TGI [36]: 8550 nM and 1210 nM
GI50 [37]: 1920 nM and 302 nM
TGI [37]: 7470 nM and 1500 nM
GI50 [38]: 5070 nM and 686 nM
